A short description of the data set: Paraffin wax solubility test. The class given is physicochemical. The following applies: 2.0 g paraffin wax in 98 g solvent, 25 °C; for Observation: up to 24-hours stirring; for Dissolution Time: stirring at 350 rpm. From the text: A method to evaluate the capability of a solvent to dissolve paraffin wax was developed and it helps to understand how will be performed certain solvent when applied to an epicuticular surface of a plant or an insect.

Turning to `OCC1CCCO1` (stereo not shown) [tetrahydrofurfural alcohol], the Observation result is reported as “undissolved after”.

In the case of `CCCCCCCCCCCCCC(=O)OC(C)C` [isopropyl myristate], the Observation entry is listed as “stable at 25° c”.

For `CCCCCCCCCCCC(=O)OC` [methyl laurate], the “Dissolution Time” value stood at 300 min and the Observation result was “stable at 25° c”.

`CCCCCCCCCCCC(=O)OCC(C)C` [isobutyl laurate]: the “Dissolution Time” value was 340 min and the Observation entry is “stable at 25° c”.

As for `CCCCCCCCCC(=O)N(C)C` [N,N-dimethyldecanamide], the Observation entry was “undissolved after”.

Consider `CC1COC(=O)O1` (stereo not shown) [propylene carbonate], for which the Observation entry is reported as “undissolved after”.

For `CCCCCCCCCCCC(=O)OC(C)C` [isopropyl laurate], the “Dissolution Time” value worked out at 102 min and the Observation entry is recorded as “stable at 25° c”.

Regarding `CCCCCCCCCCCC(=O)OCCC(C)C` [isoamyl laurate], the “Dissolution Time” value turned out to be 620 min and the Observation result is reported as “stable at 25° c”.

For the compound `C[S+](C)[O-]` [dimethyl sulfoxide], the Observation entry is recorded as “undissolved after”.

Take `CCCCCCCCCCCC(=O)OCC(CC)CCCC` (stereo not shown) [2-ethylhexyl laurate]: the “Dissolution Time” value is 930 min and the Observation entry is reported as “stable at 25° c”.

Turning to `O=C1CCCCC1` [cyclohexanone], the Observation entry was “undissolved after”.

The values above are taken from patent US20230172200A1, “A LIQUID ANTI-PATHOGENIC AGRICULTURAL COMPOSITION” (ORO AGRI INC., priority 2019, published 2023).
